# System: Key Grass and Sedge Weeds as well as Grass Crops
# Experiment: Post-Emergent Test II (Table 6)
# Assay type: in vivo
# Details: CYPSS (CYPES: yellow nutsedge, Cyperus esculentus), 140 g ai/ha
# Protocol: Seeds or nutlets of the desired test plant species were planted in Sun Gro Metro-Mix® 360 planting mixture, which typically has a pH of 6.0 to 6.8 and an organic matter content of about 30 percent, in plastic pots with a surface area of 64 square centimeters. When required to ensure good germination and healthy plants, a fungicide treatment and/or other chemical or physical treatment was applied. The plants were grown for 7-21 days in a greenhouse with an approximate 15 h photoperiod which was maintained at about 23-29° C. during the day and 22-28° C. during the night. Nutrients and water were added on a regular basis and supplemental lighting was provided with overhead metal halide 1000-Watt lamps as necessary. The plants were employed for testing when they reached the first or second true leaf stage.
# A weighed amount, determined by the highest rate to be tested, of each test compound was placed in a 25 mL glass vial and was dissolved in 4 mL of a 97:3 v/v mixture of acetone and DMSO to obtain concentrated stock solutions. […] The concentrated stock solutions obtained were diluted with 20 mL of an aqueous mixture containing acetone, water, isopropyl alcohol, DMSO, Atplus 411F crop oil concentrate, and Triton® X-155 surfactant in a 48.5:39:10:1.5:1.0:0.02 v/v ratio to obtain spray solutions containing the highest application rates. Additional application rates were obtained by serial dilution of 12 mL of the high rate solution into a solution containing 2 mL of 97:3 v/v mixture of acetone and DMSO and 10 mL of an aqueous mixture containing acetone, water, isopropyl alcohol, DMSO, Atplus 411F crop oil concentrate, and Triton X-155 surfactant in a 48.5:39:10:1.5:1.0:0.02 v/v ratio to obtain ½×, ¼×, ⅛× and 1/16× rates of the high rate. Compound requirements are based upon a 12 mL application volume at a rate of 187 liters per hectare (L/ha). Formulated compounds were applied to the plant material with an overhead Mandel track sprayer equipped with 8002E nozzles calibrated to deliver 187 L/ha over an application area of 0.503 square meters at a spray height of 18 inches (43 cm) above the average plant canopy height. Control plants were sprayed in the same manner with the solvent blank.
# The treated plants and control plants were placed in a greenhouse as described above and watered by subirrigation to prevent wash-off of the test compounds. After 14 days, the condition of the test plants as compared with that of the untreated plants was determined visually and scored on a scale of 0 to 100 percent where 0 corresponds to no injury and 100 corresponds to complete kill and presented as indicated in Table A. Some of the compounds tested, application rates employed, plant species tested, and results are given in Table 5.
row,SMILES,"Visual Growth Reduction (%) 14 Days After Application, CYPSS"
1,"Nc1c(F)c(-c2ccc(Cl)c(F)c2Cl)nc(C(=O)O)c1Cl [Compound 16, 4-Amino-3-chloro-6-(2,4-dichloro-3-fluorophenyl)-5-fluoropicolinic acid]",B (85-94)

# Same assay, conditions: DIGSA: crabgrass (Digitaria sanguinalis), 70 g ai/ha
row,SMILES,"Visual Growth Reduction (%) 14 Days After Application, DIGSA"
1,"Nc1c(F)c(-c2ccc(Cl)c(F)c2Cl)nc(C(=O)O)c1Cl [Compound 16, 4-Amino-3-chloro-6-(2,4-dichloro-3-fluorophenyl)-5-fluoropicolinic acid]",C (75-84)

# Same assay, conditions: DIGSA: crabgrass (Digitaria sanguinalis), 140 g ai/ha
row,SMILES,"Visual Growth Reduction (%) 14 Days After Application, DIGSA"
1,"Nc1c(F)c(-c2ccc(Cl)c(F)c2Cl)nc(C(=O)O)c1Cl [Compound 16, 4-Amino-3-chloro-6-(2,4-dichloro-3-fluorophenyl)-5-fluoropicolinic acid]",B (85-94)

# Same assay, conditions: ECHSS (ECHCG: barnyardgrass, Echinochloa crus-galli), 70 g ai/ha
row,SMILES,"Visual Growth Reduction (%) 14 Days After Application, ECHSS"
1,"Nc1c(F)c(-c2ccc(Cl)c(F)c2Cl)nc(C(=O)O)c1Cl [Compound 16, 4-Amino-3-chloro-6-(2,4-dichloro-3-fluorophenyl)-5-fluoropicolinic acid]",B (85-94)

# Same assay, conditions: ECHSS (ECHCG: barnyardgrass, Echinochloa crus-galli), 140 g ai/ha
row,SMILES,"Visual Growth Reduction (%) 14 Days After Application, ECHSS"
1,"Nc1c(F)c(-c2ccc(Cl)c(F)c2Cl)nc(C(=O)O)c1Cl [Compound 16, 4-Amino-3-chloro-6-(2,4-dichloro-3-fluorophenyl)-5-fluoropicolinic acid]",A (95-100)

# Same assay, conditions: ORYSS (ORYSA: rice, Oryza sativa), crop, 70 g ai/ha
row,SMILES,"Visual Growth Reduction (%) 14 Days After Application, ORYSS"
1,"Nc1c(F)c(-c2ccc(Cl)c(F)c2Cl)nc(C(=O)O)c1Cl [Compound 16, 4-Amino-3-chloro-6-(2,4-dichloro-3-fluorophenyl)-5-fluoropicolinic acid]",F (30-44)

# Same assay, conditions: ORYSS (ORYSA: rice, Oryza sativa), crop, 140 g ai/ha
row,SMILES,"Visual Growth Reduction (%) 14 Days After Application, ORYSS"
1,"Nc1c(F)c(-c2ccc(Cl)c(F)c2Cl)nc(C(=O)O)c1Cl [Compound 16, 4-Amino-3-chloro-6-(2,4-dichloro-3-fluorophenyl)-5-fluoropicolinic acid]",E (45-59)

# Same assay, conditions: SETFA: giant foxtail (Setaria faberi), 70 g ai/ha
row,SMILES,"Visual Growth Reduction (%) 14 Days After Application, SETFA"
1,"Nc1c(F)c(-c2ccc(Cl)c(F)c2Cl)nc(C(=O)O)c1Cl [Compound 16, 4-Amino-3-chloro-6-(2,4-dichloro-3-fluorophenyl)-5-fluoropicolinic acid]",A (95-100)

# Same assay, conditions: SETFA: giant foxtail (Setaria faberi), 140 g ai/ha
row,SMILES,"Visual Growth Reduction (%) 14 Days After Application, SETFA"
1,"Nc1c(F)c(-c2ccc(Cl)c(F)c2Cl)nc(C(=O)O)c1Cl [Compound 16, 4-Amino-3-chloro-6-(2,4-dichloro-3-fluorophenyl)-5-fluoropicolinic acid]",A (95-100)

# Same assay, conditions: SORVU: johnsongrass (Sorghum vulgare), 70 g ai/ha
row,SMILES,"Visual Growth Reduction (%) 14 Days After Application, SORVU"
1,"Nc1c(F)c(-c2ccc(Cl)c(F)c2Cl)nc(C(=O)O)c1Cl [Compound 16, 4-Amino-3-chloro-6-(2,4-dichloro-3-fluorophenyl)-5-fluoropicolinic acid]",C (75-84)

# Same assay, conditions: SORVU: johnsongrass (Sorghum vulgare), 140 g ai/ha
row,SMILES,"Visual Growth Reduction (%) 14 Days After Application, SORVU"
1,"Nc1c(F)c(-c2ccc(Cl)c(F)c2Cl)nc(C(=O)O)c1Cl [Compound 16, 4-Amino-3-chloro-6-(2,4-dichloro-3-fluorophenyl)-5-fluoropicolinic acid]",B (85-94)

# Same assay, conditions: TRZSS (TRZAS: wheat, spring, Triticum aestivum), crop, 70 g ai/ha
row,SMILES,"Visual Growth Reduction (%) 14 Days After Application, TRZSS"
1,"Nc1c(F)c(-c2ccc(Cl)c(F)c2Cl)nc(C(=O)O)c1Cl [Compound 16, 4-Amino-3-chloro-6-(2,4-dichloro-3-fluorophenyl)-5-fluoropicolinic acid]",B (85-94)

# Same assay, conditions: TRZSS (TRZAS: wheat, spring, Triticum aestivum), crop, 140 g ai/ha
row,SMILES,"Visual Growth Reduction (%) 14 Days After Application, TRZSS"
1,"Nc1c(F)c(-c2ccc(Cl)c(F)c2Cl)nc(C(=O)O)c1Cl [Compound 16, 4-Amino-3-chloro-6-(2,4-dichloro-3-fluorophenyl)-5-fluoropicolinic acid]",B (85-94)

# Same assay, conditions: ZEAMX: maize, corn (Zea mays), crop, 70 g ai/ha
row,SMILES,"Visual Growth Reduction (%) 14 Days After Application, ZEAMX"
1,"Nc1c(F)c(-c2ccc(Cl)c(F)c2Cl)nc(C(=O)O)c1Cl [Compound 16, 4-Amino-3-chloro-6-(2,4-dichloro-3-fluorophenyl)-5-fluoropicolinic acid]",B (85-94)

# Same assay, conditions: ZEAMX: maize, corn (Zea mays), crop, 140 g ai/ha
row,SMILES,"Visual Growth Reduction (%) 14 Days After Application, ZEAMX"
1,"Nc1c(F)c(-c2ccc(Cl)c(F)c2Cl)nc(C(=O)O)c1Cl [Compound 16, 4-Amino-3-chloro-6-(2,4-dichloro-3-fluorophenyl)-5-fluoropicolinic acid]",B (85-94)

# From US10765114B2, “4-amino-6-(pyridyl and 2-substitutedphenyl)-picolinates and 6-amino-2-(pyridyl and 2-substitutedphenyl)-pyrimidine-4-carboxylates and their use as herbicides” (Dow AgroSciences LLC, priority 2013, dated 2020)
